Assay results: patent publication US8299124B2, “Aqueous intraocular penetration-promoting eye drop” (Senju Pharmaceutical Co., Ltd., priority 2004, dated 2012)

How the values were obtained:
[1] = pH 7.8
[2] = system: intraocular inflammation after anterior chamber puncture; assay: Medicinal efficacy test in a model rabbit of anterior chamber puncture; assay type: in vivo, Male Dutch rabbits; conditions: after anterior chamber puncture in rabbits
Description: The concentration of said medicament in the anterior chamber can be measured by the HPLC method for the anterior aqueous humor collected through anterior chamber puncture, as shown in Experimental Example 1 (Penetration Test of a Medicament in the Aqueous Humor) described below. Male Dutch rabbits (Biotech Co., Ltd) with a body weight of about 2 kg was bred and acclimatized under the condition that the temperature was 23±2° C. and the humidity was 55±10%. On the day of the test, the flare value of anterior chamber in the rabbits was determined by a laser flare cell meter (FC-1000, Kowa Company, Ltd.). […] The eye drops of Formulations 4 to 6 in Table 4 were prepared and used. At 30 minutes before the puncture of the anterior chamber, 1,000 U/kg of heparin (Heparin sodium injection, Ajinomoto Co., Inc.) was administered into the rabbit's ear vein. […] The flare value (photon count/msec) in the anterior chamber was determined 30 minutes after the puncture of anterior chamber using a laser flare cell meter (FC-1000, Kowa Company, Ltd.). […] An inhibition rate of inflammation after the puncture of anterior chamber was calculated according to the following equation. […]

SMILES | Octanol-water partition coefficient of 2-amino-3-(4-bromobenzoyl)phenylacetic acid [1] | concentration in the anterior aqueous humor at which the intraocular inflammation can be inhibited by at least not less than about 25% (therapeutically effective concentration) [2]
Nc1c(CC(=O)[O-])cccc1C(=O)c1ccc(Br)cc1.Nc1c(CC(=O)[O-])cccc1C(=O)c1ccc(Br)cc1.O.O.O.[Na+].[Na+] [Control, Sodium 2-amino-3-(4-bromobenzoyl)phenylacetate 3/2 hydrate, reference compound] | 0.60 | 
Nc1c(CC(=O)O)cccc1C(=O)c1ccc(Br)cc1 [2-Amino-3-(4-bromobenzoyl)phenylacetic acid] |  | not less than 1.5 ng/mL
